Values quoted from earlier work in paper PMC13517605, “In Vitro Three-Dimensional Human Liver Model for Drug-Induced Liver and Bile Duct Injury Prediction” (Toxics, 2026).

Settings: maximum plasma concentration in humans

Cmax: 52.3 µM
Compound: [H]/N=C(/N)N[C@H]1[C@H](O)[C@@H](O)[C@H](O[C@@H]2O[C@@H](C)[C@](O)(C=O)[C@H]2O[C@@H]2O[C@@H](CO)[C@H](O)[C@@H](O)[C@@H]2NC)[C@@H](N/C(N)=N\[H])[C@@H]1O [Streptomycin, streptomycin]
